In patent publication US20160144021A1, “Vaccine Composition And Method Of Use” (MEDIMMUNE, LLC, priority 2013, published 2016):

Key:
[1] = tested on: RSV sF; assay: Serum F-specific IgA ELISA, 1x RSV seropositive BALB/c mice; format: in vivo; conditions: Day 14; RSV sF at 10 μg, RSV sF+GLA-SE at any of the 3 doses
Procedure: Serology readouts were made at Days 0, 14, 28, 42, 56, and 73 for each group. Animals were lightly anesthetized with isoflurane and bled intraorbitally. Serum was separated and stored at −20° C. and thawed for testing. Total anti-F IgG were measured at each timepoint, with anti-F IgG1 and anti-F IgG2a ELISA endpoint dilution titers measured at Day 0 and Day 42. RSV neutralization titer was determined by a RSV A2-GFP microneutralization assay. The polyclonal nature of the anti-F IgG response was evaluated on Day 42 by competition ELISA with site-specific monoclonal antibodies to RSV-F. Anti-F IgA endpoint dilution titers were measured at Day 14 for each group.

[2] = tested on: RSV sF; assay: Serum anti-F IgG and isotype ELISA, naive Sprague Dawley rats; format: in vivo; conditions: Day 42
Procedure: (§1) In a subsequent study, the immunogenicity and protection following a prime-boost regimen of RSV-SF was evaluated. 40 naive female Sprague Dawley rats were divided into designated vaccine cohorts of 5-6 animals per cohort. Briefly, test groups were given RSV sF (10 μg or 100 μg per animal) without adjuvant or RSV sF (10 μg or 100 μg per animal) with GLA-SE (2.5 μg in 2% SE). Negative control groups were dosed with placebo (PBS buffer) or adjuvant GLA-SE (2.5 μg/2%) without RSV sF. […] Groups 1-6 were inoculated IM with 500 μL of designated vaccine article on Day 0 and Day 22, while Group 7 was inoculated IN with 200 μL of RSV A2 virus on day 0 only. […] Rats were euthanized at 4 days post challenge on Day 46, the day of peak viral replication determined from Study 1. Lungs (excluding 1 lobe which was formalin-fixed) and noses were homogenized and quantified for viral titers.
(§2) Serological responses to vaccination were evaluated at 6 hours post immunization, D22, and D42 for all animals and at Day 14 for a subset of 3 animals per group. […] Serum obtained 6 hours post-immunization was evaluated for cytokine titers by multiplexed ELISA. Serum from Days 14, 22, and 42 were measured for total anti-F IgG ELISA endpoint dilution titers. Day 42 serum was evaluated for the specific contribution of IgG1, IgG2a, and IgG2b anti-F responses by ELISA endpoint dilution titers. […]

[3] = tested on: RSV A2; assay: GFP-tagged RSV A2 micro-neutralization of sera, naive BALB/c mice; format: in vivo; conditions: day 28, prior to challenge, 0.3 μg RSV sF days 0 and 14
[4] = Lung histopathology after RSV challenge, naive BALB/c mice; format: in vivo; conditions: H&E lung sections day 4 post RSV challenge
Procedure: Lung sections (5 micron) were prepared using a microtome from paraffin-embedded formalin-fixed lung lobes harvested at day 4 post RSV challenge. Sections stained with hematoxylin and eosin were digitally scanned and examined by a licensed pathologist. Lung sections were evaluated for pulmonary lesion characteristics such as presence of bronchiolar hyperplasia, alveolitis, eosinophilic infiltrate and infiltration of the peribronchiolar/perivascular spaces.

[5] = tested on: IFNγ, IL-5, IL-13, eotaxin, RANTES; assay: Lung cytokines 4 days post challenge, highly seropositive BALB/c mice
Procedure: One hundred three female BALB/c mice (Charles River), ages 6-8 weeks old, were divided into 13 groups. Group 1 had 7 mice and groups 2 through 13 had 8 mice. Following anaesthetization groups 1 through 12 were dosed with 1×10^6 plaque forming units (PFU) in 100 μL of live RSV via an intranasal (IN) route on Day 0 and Day 35. Group 13 was not exposed to RSV. On Day 56, groups 1 through 11 were immunized with placebo (PBS) or vaccine article via an intramuscular (IM) route following anesthesia with isoflurane. The vaccine articles were formulated in a total of 100 μL with 50 μL given in each hind limb. Group 12 was anesthetized with isoflurane and immunized with 1×10^6 PFU in 100 μL of live RSV via an IN route. […] Sera were obtained from retro orbital blood collection at study days 0, 28, 56 70 and 84, separated from whole blood and stored at −20° C. until evaluated. Spleens from 4 animals in each group were harvested for T cell assays on Day 67, 11 days post immunization, or at day 88, 4 days post challenge. Lung cytokines quantified at 4 days after challenge in individual lung homogenates by luminex assay (Milipore).
Mouse cytokine/chemokine multiplex kits designed to include IFNgamma, IL-5, IL-13, IL-17 and eotaxin (Millipore, Billerica, Mass.) were used to evaluate lung homogenates. Lung homogenates were clarified by centrifugation prior to use. Assays were performed following manufacturer's instructions and plates were analyzed on a Luminex reader (Bio-Rad, Hercules, Calif.).

[6] = tested on: RSV sF protein; assay: IFNγ and IL-4 ELISPOT of splenocytes, naive cotton rats; format: in vivo; conditions: splenocytes 4 days post challenge, RSV sF restimulation
Procedure: Paired antibodies for cotton rat IFNγ (#DY565) or IL-4 (#DY584) obtained in R&D DuoSet ELISA Systems were used in ELISPOT assay formats for the evaluation of cotton rat cellular immune responses. 96 well PVDF plates (Millipore, Billerica, Mass.) were coated overnight with kit provided capture antibody (anti-IFNγ or anti-IL-4, respectively) at 10 μg/mL in PBS. Plates were blocked with cRPMI-5 for 2 hours. Cells were then incubated on blocked coated plates in cRPMI-5 for 36-48 hours in triplicate with media, RSV sF ([…]), or ConA (5 μg/mL) as a positive control. Following incubation cells were washed away, plates were incubated with included biotinylated detection antibody (1 μg/mL in PBS+1% BSA) followed by streptavidin-HRP (Mabtech, Cincinnati, Ohio) and 3-amino-9-ethylcarbazole (AEC, Vector Labs, Burlingame, Calif.). Plates were read and analyzed using a CTL ImmunoSpot reader and software (Cellular Technology Ltd).

[7] = tested on: RSV F peptide pool of overlapping 15-mers; assay: F-specific IFNγ ELISPOT of PBMC, cynomolgus monkeys; format: in vivo
Procedure: To determine whether immunization with sF formulated with GLA-SE enhanced an F-specific T cell response, F-specific IFNγ T cell responses were measured by ELISPOT following restimulation with a peptide pool of overlapping 15-mers derived from the RSV F protein sequence. […] While the number of T cells in the sF+GLA-SE group decreased over time, one animal still met the definition of a positive responder out to day 169. At Day 169, 5 months post vaccination, a booster vaccination was given. […] In comparison, 0 of 4 monkeys in the sF alone group responded with an increase in IFNγ secreting F-specific T cells (mean 5 SFC/million).

[8] = tested on: RSV A2; assay: RSV A2-GFP microneutralization of sera, naive Sprague Dawley rats; format: in vivo; conditions: Day 22, 22 days post Dose 1; RSV sF 10 and 100 μg groups
Procedure: as §1, §2

For “RSV sF: RSV soluble F protein, amino acids 1-524 of the RSV A2 F sequence lacking the transmembrane domain, given without adjuvant”, the “serum F-specific IgA titers versus seropositive animals vaccinated with PBS” value [1] was “significantly higher serum F-specific IgA titers”, the F-specific isotype balance [2] was “higher IgG1 titers than IgG2b titers” and the “serum RSV neutralizing titers” value [3] was 4.1 log2. The “pulmonary inflammation / lesion scores” value [4] was “increased pulmonary lesion scores”, the “lung RANTES following RSVA2 exposure” value ([5]; 4 days post challenge) was “increased with increasing amounts of RSV sF” and the “lung eotaxin and IL-13 upon RSV challenge” value ([5]; 4 days post challenge) was “did not induce eotaxin or IL-13 levels higher than any of the other groups”. For the same substance, the “lung IL-5 in response to RSV challenge” value ([5]; day 88, 4 days post challenge) was “did not set up mice to induce IL-5”, the “F-specific IFNγ ELISPOT response (mean)” value [6] was 58 SFU/million cells and the “mean F-specific IFNγ ELISPOT response” value ([7]; Day 42) was 8 SFC/million PBMC. The “animals with positive F-specific IFNγ ELISPOT response” value ([7]; Day 42, ≥50 SFC/million increase and 4-fold rise from day −7) was 0 of the 4, the “animals with positive F-specific IFNγ ELISPOT response” value ([7]; Day 183) was 0 of 4 and the “mean F-specific IFNγ ELISPOT response” value ([7]; Day 183) was 5 SFC/million. For the same substance, the “serum neutralizing titers (log2 GMT IC50)” value [8] was “not significantly different from placebo”.
